Read-outs that look alike come from different tables or passages of the source.
Key:
AM38 (glioblastoma) = experiment: Cytotoxicity profiling (Alamar Blue), AM38; type: cell-based, human
Method: (§1) FIG. 8. Cytotoxicity of pantaphos across various cancer cell lines. Assays were conducted as described (mBio. 2021 Feb. 2; 12(1):e03402-20), using the Alamar Blue method with 72-hour treatment using Raptinal ([…]) as Dead cell control; n=3. Cell seeding densities: CT26 (colon carcinoma) 2000 c/w; HOS (osteosarcoma) 2500 c/w; ES-2 (ovarian carcinoma), HCT-116 (colorectal carcinoma), A-549 (lung carcinoma), A-172 (glioblastoma), D54 (glioblastoma), U87 (glioblastoma), T98G (glioblastoma), SK-ML-28 (melanoma), MCF-7 (breast cancer), AM38 (glioblastoma) and MDA-MB-231 (breast cancer) 3000 c/w; U118MG (malignant glioma) 4000 c/w; HepG2 (liver cancer) 8000 c/w. c/w=cells per well. IC50 and Emax values shown in Table 6 were extracted from the raw data plotted in FIG. 8.
(§2) Cell culture cytotoxicity screening. The compounds were evaluated for their ability to kill cancer cell lines in culture, using HOS (osteosarcoma); ES-2 (ovarian cancer); HCT 116 (colon cancer); A549 (lung carcinoma); and A172 (glioma) cells. Human skin fibroblast cells (HFF-1) were also assessed. Cells were seeded (3000 cells well^−1 for ES-2, HCT 116, A549 and A172; 4000 cells well^−1 for HFF-1 and 2500 cells well^−1 for HOS) in a 96-well plate and allowed to attach overnight. Cells were treated with pantaphos in water. The concentrations of the tested compounds were 5 nM to 100 μM (1% water final; 100 μl well^−1). Raptinal (50 μM) was used as a dead control. On each plate, five technical replicates per compound were performed. 72 hours post-treatment, cell viability was assessed using the Alamar Blue method (http://www.bio-rad-antibodies.com/measuring-cytotoxicity-proliferation-spectrophotometry-fluorescence-alamarBlue.html). […] Conversion of Alamar Blue was measured with a plate reader (SpectraMax M3; Molecular Devices) by fluorescence (excitation wavelength: 555 nm; emission wavelength: 585 nm; cutoff 570 nm; autogain). Percentage death was determined by normalizing to water-treated cells and Raptinal-treated cells. […]

[1] = test system: Pseudomonas aeruginosa PAO1; experiment: Antibacterial bioassay (MIC), Pseudomonas aeruginosa; type: cell-based; details: CLSI
Method: (§3) Antibacterial bioassays. Susceptibility testing for the ESKAPE pathogens and Salmonella enterica LT2 was performed using a Kirby-Bauer method as outlined by the Clinical and Laboratory Standards Institute (CLSI). For rich media bioassays, Mueller Hinton Broth 2 (MH-2, Sigma-Aldrich, 90922) was used for all strains except 1% BHI was supplemented for Enterococcus faecalis ATCC 19433. For minimal media bioassays, glucose-MOPS minimal medium was used. Briefly, overnight bacterial cultures were sub-cultured and inoculated into 5 mL top agar (0.7% agar) for final concentration of 5×10^5 CFU/mL. Then, 20 μL of a compound 2-fold dilution series (200, 100, 50, 25, 12.5, 6.25 μM in water) was spotted on 6 mm diameter blank paper discs (BD BBL™ 231039). Control discs received 20 μL of 50 mg/mL kanamycin. Plates were incubated at 35° C. for 20-24 hours. […] Sensitivity of the IPTG-inducible phosphonate uptake strain WM6242 to pantaphos was tested using a disk diffusion assay. Plates containing growth medium were overlayed with 5 mL of top agar (0.7% agar) inoculated with 100 μL (OD600=0.8) of the phosphonate-specific E. coli indicator strain (WM6242) with or without addition of 1 mM IPTG. WM6242 is engineered with an IPTG-inducible, non-specific phosphonate uptake system (phnCDE). […]

[2] = test system: MDA-MB-231 (breast cancer); experiment: Cytotoxicity profiling (Alamar Blue), MDA-MB-231; type: cell-based, human
Method: as §1, §2

MCF-7 (breast cancer) = experiment: Cytotoxicity profiling (Alamar Blue), MCF-7; type: cell-based, human
Method: as §1, §2

[3] = test system: Klebsiella pneumoniae ATCC 27736; experiment: Antibacterial bioassay (MIC), Klebsiella pneumoniae; type: cell-based; details: CLSI
Method: as §3

[4] = test system: Acinetobacter baumannii ATCC 19606; experiment: Antibacterial bioassay (MIC), Acinetobacter baumannii; type: cell-based; details: CLSI
Method: as §3

onion bulbs = experiment: Onion bioactivity assay (center rot); type: in vivo, Allium cepa (onion); details: 30° C.
Method: Onion bioactivity assays. Yellow onions purchased from a local market were surface sterilized in a laminar flow biosafety hood as follows. First, the outermost layers with any damage or browning were removed and discarded, followed by soaking for 10 minutes in 10% bleach. The onions were then rinsed three times with sterile dH2O, followed by soaking in 70% EtOH for an additional 10 minutes, then rinsed four times with sterile dH2O. The onions were left in a biosafety laminar flow hood until water and ethanol were completely evaporated. For testing virulence of microbial strains, the onions were inoculated by stabbing with a previously sterilized wooden toothpick dipped into a bacterial cell suspension (1×10^3 CFU/mL in 1×PBS buffer). Chemical complementation studies were performed by addition of 100 μL of filter-sterilized sample into the hole created by the toothpick during inoculation. For testing bioactivity of crude and purified chemical samples in the absence of bacteria, holes were punched in sterilized onions using sterile toothpicks followed by addition of 100 μL of a filter-sterilized sample. Following inoculation and/or treatment with filter-sterilized compounds, the onions were placed in zip-lock plastic bags and incubated at 30° C. in the dark for the indicated number of days. […]

O=C(O)/C=C(\C(=O)O)C(O)P(=O)(O)O (centres unmarked) [pantaphos, 2-(hydroxy(phosphono)methyl)maleate]
sensitivity of the cell line to the compound, in words (AM38 (glioblastoma); AM38): sensitive | Emax (AM38 (glioblastoma); Homo sapiens, AM-38, AM38, Alamar Blue, 72-hour treatment): 74 to 78% | IC50 (AM38 (glioblastoma); Homo sapiens, AM-38, AM38, Alamar Blue, 72-hour treatment (Table 6)): 3970 ± 1010 nM | MIC ([1]; Mueller-Hinton 2 medium, read-out: MIC, Rich medium): > 200 µM | MIC ([1]; glucose-MOPS minimal medium, read-out: MIC, Minimal medium): > 200 µM | Emax ([2]; Homo sapiens, MDA-MB-231, Alamar Blue, 72-hour treatment): 91% | IC50 ([2]; Homo sapiens, MDA-MB-231, Alamar Blue, 72-hour treatment (Table 6)): 2680 ± 230 nM | sensitivity of the cell line to the compound, in words ([2]; MDA-MB-231): sensitive | Emax (MCF-7 (breast cancer); Homo sapiens, MCF7, MCF-7, Alamar Blue, 72-hour treatment): 90 to 92% | IC50 (MCF-7 (breast cancer); Homo sapiens, MCF7, MCF-7, Alamar Blue, 72-hour treatment (Table 6)): 2880 ± 6280 nM | sensitivity of the cell line to the compound, in words (MCF-7 (breast cancer); MCF-7): sensitive | MIC ([3]; ATCC27736, Mueller-Hinton 2 medium, read-out: MIC, Rich medium): > 200 µM | MIC ([3]; ATCC27736, glucose-MOPS minimal medium, read-out: MIC, Minimal medium): > 200 µM | MIC ([4]; ATCC19606, Mueller-Hinton 2 medium, read-out: MIC, Rich medium): > 200 µM | MIC ([4]; ATCC19606, glucose-MOPS minimal medium, read-out: MIC, Minimal medium): > 200 µM | onion center rot on co-inoculation with the P. ananatis hvr deletion mutant (chemical complementation) (onion bulbs; co-inoculated with hvr mutant): resulted in onion rot | onion rot lesions after injection in the absence of bacteria (onion bulbs; surface sterilized onion bulbs, 100 μL filter-sterilized sample, no bacteria): severe onion rot lesions

Reference: US20250282802A1, “P[…] AND METHODS” (priority 2020, published 2025)
